Patent US10501452B2, “Lactam compound derivative and application thereof” (NHWA PHARMA. CORPORATION, priority 2015, dated 2019)
Like-named read-outs stand apart in the source and are kept apart here.

How the values were obtained:
5-HT7 receptor = 5-HT7 receptor (Rattus norvegicus (Rat), UniProt P32305); assay: 5-HT7 receptor binding assay ([3H]-5-CT); details: for Ki: rat hypothalamus membrane, [3H]-5-CT
Protocol: Adult SD rats were decapitated. […] Centrifugation was conducted (repeated 3 times).
(§1) Materials for the Receptor Binding Assay

[1] = test system: Apomorphine induced clambering in mice; assay: Apomorphine induced clambering assay of mice; format: in vivo; details: for ED50: Mus musculus, po, read-out: Apomorphine induced clambering (ED50, po, mg/kg); for improvement of apomorphine induced clambering symptoms (in words): compared with risperidone
Protocol: Healthy KM mice, male, with body weight of 18-22 g, were provided by Qinglongshan Animal Cultivation Center, Nanjing.
Apomorphine provided by Sigma Company was dissolved in 0.9% NaCl (containing 0.1% vitamin C) before use, and was freshly formulated before use.
Vitamin C, F20061113, was provided by Sinopharm Chemical Reagent Co. Ltd.
Instruments: self-made clambering cage, chronograph.
Procedures: apomorphine induced clambering assay of mice
After 5 min of adaptation, the behavior of the mice at 10-11, 20-21, and 30-31 min after the injection of apomorphine were observed and scored.

[2] = test system: conditioned avoidance response in rats; assay: animal or person; format: in vivo, rat; details: for ED50: po; for Therapeutic index: LD50 versus CAR ED50; for performance in the rat CAR model (in words): compared with risperidone
Protocol: […] of SD rats, male.
Firstly, training the rats with shuttle box:
(1) The rats were allowed for adaption for five minutes;
(2) Conditioned stimulus (CS, light and noise) were started and lasted for 20 s, and at the tenth second, unconditioned stimulus (US, 1.5 mA electric shock) was performed and lasted for 10 s;
(3) Training was conducted 30 times per day for 9 days. The interval between two trainings was set randomly ranged from 20 to 30 s;
(4) Observation indicators:
The animal ran to another compartment during the conditioning stimulus was recorded as “avoidance”;
Animals ran to another compartment during the electric shock was recorded as “escape”;
Grouping of the qualified rats: the qualified rats were divided into negative control group, positive drug groups of each dosage, and compound groups of each dosage according to the principle of randomization, 8 in each group.
Administration Method: Corresponding solvent was administered intragastrically to the negative control group; corresponding dosages of positive drugs were administered intragastrically to the positive drug groups of each dosage; and corresponding dosages of compounds were administered intragastrically to the compound groups of each dosage.
CAR Assay: A CAR assay was performed 1 hour after intragastric administration. The method was the same as the CAR training. The observation indicators were the number of avoidances, the number of escapes, and the number of escape failures.
Statistical Data Processing: Assay data are presented as mean±standard deviation (Mean±SD), the comparison was performed by a combination of one-way ANOVA with post-hoc LSD. The ED50 was calculated using the probit method.

[3] = test system: MK-801 induced high activity in mice; assay: MK-801 induced high activity; format: in vivo; details: for ED50: Mus musculus, po; for improvement of MK-801 induced high activity (in words): compared with risperidone
Protocol: Ascorbic acid was provided by Sinopharm Chemical Reagent Co. Ltd.
Subsequently, the spontaneous activities of the mice of each group in 90 min were measured.

D2 = D2 (Rattus norvegicus (Rat), UniProt P61169); assay: D2 receptor binding assay (3H-Spiperone); details: read-out: Ki (nM) D2; rat striatum membrane, 3H-Spiperone
Protocol: Rats were decapitated. Striatum of brain was rapidly taken on ice, 3 ml of buffer (0.05 M Tris-HCl buffer, containing NaCl 120 mM, KCl 5 mM, MgCl2 1 mM, CaCl2 1 mM) was added, homogenization was conducted, and then 5 ml of buffer was then added. The weight of the homogenized tubes were adjusted using a balance, and centrifugation was conducted. The supernatant was discarded, and 3 ml of buffer was added. Vortex mixer was used for blending, and then 5 ml of buffer was added. Centrifugation was conducted and repeated 3 times. The supernatant was discarded after centrifugation was completed, and the pellets were stored at −80° C. for future use.
Beckman LS-6500 Multi-function Liquid Scintillation Counter was used.
(1) The prepared membrane was applied with appropriate amount of buffer, and homogenizer was used for evenly dispersing. 15 tubes were mixed into a 100 ml container, and appropriate amount of buffer was added to give 50 ml of membrane suspension, which was reserved for future use.
(§7) (2) 100 μL of membrane preparation and 100 μL of buffer were added into each reaction tube.
(3) 100 μL of buffer was added into the total binding tube (TB), 100 μL of Butaclamol (final concentration 10^−5M) was added into the nonspecific binding tube (NB), 100 μL of the test compound (final concentration 10^−5M) was added into the specific binding tube (SB) of each test compound.
(5) Each of the reaction tubes was incubated at 37° C. for 20 min. After the reaction was completed, the bound ligands were rapidly filtered under reduced pressure, and sufficiently washed with ice-chilled assay buffer. The filter was taken out and put into a 3 ml scintillation vial, and 2 ml of toluene scintillation cocktail was added and blended.
(6) The scintillation vials were put into Liquid Scintillation Counter for counting. Inhibition rate(I%)=(Total binding tube cpm−compound cpm)/(Total binding tube cpm−nonspecific binding tube cpm)×100%
Each assay for the compounds was conducted in duplicate for two individual tests.

5-HT2A = 5-HT2A (Rattus norvegicus (Rat), UniProt P14842); assay: 5-HT2A receptor binding assay ([3H]-Ketanserin); details: for Ki: read-out: Ki (nM) 5-HT2A, rat cortex membrane, [3H]-Ketanserin
Protocol: Rats were decapitated. Cortex of brain was rapidly taken on ice, and 3 ml of buffer (0.05 M Tris-HCl buffer: 6.05 g of Tris was dissolved in 1000 ml of double-distilled water, and concentrated HCl was used to adjust to pH 7.5) was added, homogenization was conducted, and then 5 ml of buffer was added. Incubation was conducted at 37° C. for 10 min, the weight of the tubes were adjusted using a balance after incubation. Centrifugation was conducted at 12000 rpm, 4° C. for 20 min, the supernatant was discarded, and 3 ml of buffer was added. Vortex mixer was used for blending, and then 5 ml of buffer was added. Centrifugation was conducted (repeated 3 times). After the centrifugation, the supernatant was discarded, and the pellets were stored at −80° C. for future use.
(1) The prepared membrane was applied with buffer, and homogenizer was used for evenly dispersing. 15 tubes were mixed into a 100 ml container, and appropriate amount of buffer was added to give 50 ml of membrane suspension, which was reserved for future use.
as §7
(3) 100 μL of buffer was added into the total binding tube (TB), 100 μL of Methysergide (final concentration 10^−5M) was added into the nonspecific binding tube (NB), 100 μL of the test compound (final concentration 10^−5M) was added into the specific binding tube (SB) of each test compound.
(5) Each of the reaction tubes was incubated at 37° C. for 15 min. After the reaction was completed, the bound ligands were rapidly filtered under reduced pressure, and sufficiently washed with ice-chilled assay buffer. The filter was taken out and put into a 3 ml scintillation vial, and 2 ml of toluene scintillation cocktail was added and blended.
(6) The scintillation vial were put into Liquid Scintillation Counter for counting. Inhibition rate(I%)=(Total binding tube cpm−compound cpm)/(Total binding tube cpm−nonspecific binding tube cpm)×100%

[4] = Acute toxicity study (rats); details: both sexes, KM, in vivo, po, 2000 mg/kg; rat, intragastric
Protocol: (§2) Example 41: Acute Toxicity Study
(§3) Limit test of sequential assay: KM rats or mice (half male and half female) were randomly divided into several groups (with 2-5 mice in each group), which were respectively the 2000 mg/kg groups for each compound, and the solvent group. 0.2 ml/10 g were administered intragastrically. The deaths of the animals in 3 days were observed. In the case 3 or more animals survived in 3 days without notable abnormity in their life states, the observation was continued until the assay was completed in 7 days. In the case 3 or more animals died in 3 days, the method of median lethal dose was used to determine the LD50.
(§4) Results: The compound of the invention has relatively low acute toxicity.

Catalepsy assay = details: both, Kunming, mouse, in vivo, po
Protocol: (§5) The durations of the mice to maintain the posture with the two forepaws on the bars were recorded, and 30 s of spasticity without moving was considered as the positive response. In the case the forepaws of the mice were not put down persistently, the observation was terminated at 60 s. The numbers of animals with positive response in each of the compound dosage groups were counted.

catalepsy in mice = assay: Catalepsy assay
Protocol: as §5

Histamine H1 receptor = Histamine H1 receptor (Cavia porcellus (Guinea pig), UniProt P31389); assay: Histamine H1 receptor binding assay (3H-pyrilamine); details: for Ki: guinea pig cerebellum membrane, 3H-pyrilamine
Protocol: Preparation of Histamine H1 Receptor Membrane
Guinea pigs were decapitated. […] Vortex mixer was used for blending. Centrifugation was conducted at 48000 g, 4° C. for 10 min. The supernatant was discarded to give pellets, and buffer was added again for washing. Centrifugation was conducted and repeated 3 times.
as §1
(2) 100 μL of membrane preparation was added into each reaction tube.

5-HT1A = 5-HT1A (Rattus norvegicus (Rat), UniProt P19327); assay: 5-HT1A receptor binding assay (3H-8-OH-DPAT); details: for Ki: rat cortex membrane, 3H-8-OH-DPAT
Protocol: Rats were decapitated. […] Incubation at 37° C. was conducted for 10 min. […] Centrifugation was conducted and repeated 3 times.
as §1

[5] = Acute toxicity study (mice); format: in vivo; details: both sexes, KM, mouse, in vivo, po, intragastric
Protocol: as §2, §3
(§6) Pre-assay for the method of the median lethal dose: KM mice (half male and half female) were randomly divided into several groups (with 4 mice in each group), which were respectively the 500 mg/kg, 200 mg/kg, 50 mg/kg groups for each compound, and the solvent group. 0.2 ml/10 g were administered intragastrically, and the deaths of the animals in 1-3 days were observed.
as §4

mice = assay: Acute toxicity study (mice); format: in vivo; details: intragastric
Protocol: as §2, §3, §6, §4

[6] = rat, intragastric, 1 hour after administration, read-out: Rat CAR ED50
[7] = both, Kunming (KM), mouse, in vivo

5-HT7 receptor, sequence (P32305 whole entry): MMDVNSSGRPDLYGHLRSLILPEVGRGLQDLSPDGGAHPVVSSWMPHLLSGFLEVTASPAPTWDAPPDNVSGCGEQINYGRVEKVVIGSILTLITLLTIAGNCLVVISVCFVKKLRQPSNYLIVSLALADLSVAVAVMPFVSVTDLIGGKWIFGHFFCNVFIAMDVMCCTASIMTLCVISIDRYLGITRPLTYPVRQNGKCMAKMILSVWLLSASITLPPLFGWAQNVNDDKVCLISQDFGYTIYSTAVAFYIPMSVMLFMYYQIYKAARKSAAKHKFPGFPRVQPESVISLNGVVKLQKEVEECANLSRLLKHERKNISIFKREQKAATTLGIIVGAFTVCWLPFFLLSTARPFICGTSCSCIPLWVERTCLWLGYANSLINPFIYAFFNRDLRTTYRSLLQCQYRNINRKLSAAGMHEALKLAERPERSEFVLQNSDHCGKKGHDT
5-HT1A, sequence (P19327 whole entry): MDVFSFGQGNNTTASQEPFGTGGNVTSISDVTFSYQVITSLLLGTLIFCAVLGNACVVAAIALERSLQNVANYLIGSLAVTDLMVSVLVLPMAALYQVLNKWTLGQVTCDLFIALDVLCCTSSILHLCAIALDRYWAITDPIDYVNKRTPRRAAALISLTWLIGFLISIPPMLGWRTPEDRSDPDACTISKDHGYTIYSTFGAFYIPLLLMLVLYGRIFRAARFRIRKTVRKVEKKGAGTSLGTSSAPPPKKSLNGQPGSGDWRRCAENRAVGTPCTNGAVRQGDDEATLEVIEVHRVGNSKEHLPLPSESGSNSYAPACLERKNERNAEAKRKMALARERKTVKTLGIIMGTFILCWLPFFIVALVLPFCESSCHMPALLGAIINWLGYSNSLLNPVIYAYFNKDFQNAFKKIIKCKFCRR
Histamine H1 receptor, sequence (P31389 whole entry): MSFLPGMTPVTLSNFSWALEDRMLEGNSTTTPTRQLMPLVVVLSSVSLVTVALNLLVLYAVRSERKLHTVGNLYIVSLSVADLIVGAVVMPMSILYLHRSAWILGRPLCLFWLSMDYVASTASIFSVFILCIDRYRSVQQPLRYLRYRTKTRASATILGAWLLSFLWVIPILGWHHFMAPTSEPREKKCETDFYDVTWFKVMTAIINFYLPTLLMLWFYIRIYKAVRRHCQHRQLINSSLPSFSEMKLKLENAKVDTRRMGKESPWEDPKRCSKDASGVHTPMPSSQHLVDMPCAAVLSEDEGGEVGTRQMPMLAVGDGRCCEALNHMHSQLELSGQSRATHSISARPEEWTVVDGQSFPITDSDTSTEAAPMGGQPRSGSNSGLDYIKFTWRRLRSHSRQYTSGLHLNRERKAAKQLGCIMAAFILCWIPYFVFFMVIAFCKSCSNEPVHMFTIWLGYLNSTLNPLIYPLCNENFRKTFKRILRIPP
5-HT2A, sequence (P14842 whole entry): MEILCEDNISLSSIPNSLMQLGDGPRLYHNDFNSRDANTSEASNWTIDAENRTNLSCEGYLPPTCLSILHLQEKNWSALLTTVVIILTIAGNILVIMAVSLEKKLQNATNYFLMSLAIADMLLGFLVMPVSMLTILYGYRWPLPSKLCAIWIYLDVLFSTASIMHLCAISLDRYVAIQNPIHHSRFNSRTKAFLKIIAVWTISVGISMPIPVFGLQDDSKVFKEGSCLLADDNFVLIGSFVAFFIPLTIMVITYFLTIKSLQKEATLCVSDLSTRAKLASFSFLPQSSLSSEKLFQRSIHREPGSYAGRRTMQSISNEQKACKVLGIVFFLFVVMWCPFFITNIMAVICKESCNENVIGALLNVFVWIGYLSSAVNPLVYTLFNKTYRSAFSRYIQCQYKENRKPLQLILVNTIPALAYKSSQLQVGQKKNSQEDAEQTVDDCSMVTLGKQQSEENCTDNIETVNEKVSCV
D2, sequence (P61169 whole entry): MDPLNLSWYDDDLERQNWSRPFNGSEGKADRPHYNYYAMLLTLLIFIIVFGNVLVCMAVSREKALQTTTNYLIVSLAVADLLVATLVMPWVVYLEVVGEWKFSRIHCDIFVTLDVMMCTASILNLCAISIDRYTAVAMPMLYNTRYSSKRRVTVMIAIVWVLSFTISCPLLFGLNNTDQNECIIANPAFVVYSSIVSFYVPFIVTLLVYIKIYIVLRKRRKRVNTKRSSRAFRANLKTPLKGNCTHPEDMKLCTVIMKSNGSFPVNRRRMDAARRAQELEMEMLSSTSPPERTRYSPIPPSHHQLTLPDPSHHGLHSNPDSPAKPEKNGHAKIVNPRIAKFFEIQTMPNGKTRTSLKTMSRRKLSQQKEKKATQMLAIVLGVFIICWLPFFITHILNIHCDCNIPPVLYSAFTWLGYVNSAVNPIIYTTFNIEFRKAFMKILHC

For COc1ccccc1N1CCN(CCCOc2ccc3c(c2)C(=O)N(C)CC3)CC1 [Compound 22, 7-(3-(4-(2-methoxyphenyl)piperazin-1-yl)propoxy)-2-methyl-3,4-dihydroisoquinolin-1(2H)-one], the Ki (5-HT7 receptor) was 28.1 nM, the ED50 ([1]; mice) was 0.19 mg/kg and the “improvement of apomorphine induced clambering symptoms (in words)” value ([1]; mice) was “effectively improve”. For the same compound, the ED50 [2, 6] was 0.49 mg/kg, the Therapeutic index ([2]; rat) was 404 and the “performance in the rat CAR model (in words)” value (“performance” for short) ([2]; rat) was “markedly better than risperidone”. For the same compound, the ED50 [3] was 0.12 mg/kg, the “improvement of MK-801 induced high activity (in words)” value [3] was “significantly improve” and the Ki (D2) was 9.6 nM. It also gave a Ki (5-HT2A) of 3.2 nM, an LD50 at 3 days [4] of 198 mg/kg and an ED50 (Catalepsy assay) of 52 mg/kg. For the same compound, the Catalepsy/Apomorphine induced clambering (catalepsy in mice; mice, ratio of ED50 values) was 273, the “Catalepsy/MK-801 induced high activity” value (catalepsy in mice; mice, ratio of ED50 values) was 433 and the “EPS in effective dosage (in words)” value (catalepsy in mice; mouse, in vivo) was “do not cause EPS”. The Ki (Histamine H1 receptor) was greater than 2000 nM, the Ki (5-HT1A) was 6.5 nM and the LD50 [5] was 311 mg/kg.
For CN1CCN(C2=Nc3cc(Cl)ccc3Nc3ccccc32)CC1 [clozapine, reference compound], the ED50 ([1]; mice) was 17.9 mg/kg, the ED50 [3] was 2.28 mg/kg and the ED50 (Catalepsy assay) was greater than 50 mg/kg. The Catalepsy/Apomorphine induced clambering (catalepsy in mice; mice, ratio of ED50 values) was greater than 5.58 and the “Catalepsy/MK-801 induced high activity” value (catalepsy in mice; mice, ratio of ED50 values) was greater than 21.93.
In the case of CN1CCc2ccc(OCCCN3CCC(c4noc5cc(F)ccc45)CC3)cc2C1=O [Compound 5, 7-(3-(4-(6-fluorobenzo[d]isoxazol-3-yl)piperidin-1-yl)propoxy)-2-methyl-3,4-dihydroisoquinolin-1(2H)-one], the “affinity for 5HT7 (in words)” value (5-HT7 receptor) is reported as “high affinity”, the Ki (5-HT7 receptor) is reported as 5.9 nM and the ED50 [1] is reported as 0.05 mg/kg. For the same compound, the “improvement of apomorphine induced clambering symptoms (in words)” value ([1]; mice) was “effectively improve”, the ED50 ([2]; Rattus norvegicus, 1 h, read-out: Rat CAR ED50 (mg/kg)) was 0.32 mg/kg and the “performance” value ([2]; rat) was “markedly better than risperidone”. For the same compound, the “affinity for 5-HT2A (in words)” value (5-HT2A) was “strong affinities”, the Ki (5-HT2A) was 0.1 nM and the LD50 at 3 days [4] was 168 mg/kg. For the same compound, the ED50 (Catalepsy assay) was 35 mg/kg, the Catalepsy/Apomorphine induced clambering (catalepsy in mice; [7]) was 700 and the “Catalepsy/MK-801 induced high activity” value (catalepsy in mice; [7]) was 875. For the same compound, the “EPS in effective dosage (in words)” value (catalepsy in mice; mouse, in vivo) was “do not cause EPS”, the “affinity for H1 (in words)” value (Histamine H1 receptor) was “low affinity” and the Ki (Histamine H1 receptor) was greater than 2000 nM. The “affinity for 5-HT1A (in words)” value (5-HT1A) was “strong affinities”, the Ki (5-HT1A) was 2.4 nM and the LD50 [5] was 258 mg/kg. The “LD50 (po, mg/kg)” value (mice) was 257 mg/kg.
For CN1CCc2ccc(OCCCN3CCN(c4nsc5ccccc45)CC3)cc2C1=O [Compound 14, 7-(3-(4-(benzo[d]isothiazol-3-yl)piperazin-1-yl)propoxy)-2-methyl-3,4-dihydroisoquinolin-1(2H)-one], the Ki (5-HT7 receptor) was 16.8 nM, the ED50 ([1]; mice) was 0.06 mg/kg and the “improvement of apomorphine induced clambering symptoms (in words)” value ([1]; mice) was “effectively improve”. The ED50 [2, 6] was 0.65 mg/kg, the Therapeutic index ([2]; rat) was 238 and the “performance” value ([2]; rat) was “markedly better than risperidone”. The ED50 [3] was 0.07 mg/kg, the “improvement of MK-801 induced high activity (in words)” value [3] was “significantly improve” and the Ki (D2) was 6.9 nM. The Ki (5-HT2A) was 7.2 nM, the LD50 at 3 days [4] was 155 mg/kg and the ED50 (Catalepsy assay) was 32 mg/kg. For the same compound, the Catalepsy/Apomorphine induced clambering (catalepsy in mice; mice, ratio of ED50 values) was 533, the “Catalepsy/MK-801 induced high activity” value (catalepsy in mice; mice, ratio of ED50 values) was 457 and the “EPS in effective dosage (in words)” value (catalepsy in mice; mouse, in vivo) was “do not cause EPS”. It also gave a Ki (Histamine H1 receptor) of 1360 nM, a Ki (5-HT1A) of 8.8 nM and an LD50 [5] of 202 mg/kg.
Compound O=C(CCCN1CCC(O)(c2ccc(Cl)cc2)CC1)c1ccc(F)cc1 [haloperidol, reference compound] has an ED50 ([1]; mice) of 0.08 mg/kg, an ED50 [3] of 0.1 mg/kg and an ED50 (Catalepsy assay) of 0.44 mg/kg. The Catalepsy/Apomorphine induced clambering (catalepsy in mice; mice, ratio of ED50 values) was 4.89 and the “Catalepsy/MK-801 induced high activity” value (catalepsy in mice; mice, ratio of ED50 values) was 4.40.
Compound CN1CCc2ccc(OCCCN3CCN(c4ncccn4)CC3)cc2C1=O [Compound 24, 2-methyl-7-(3-(4-(pyrimidin-2-yl)piperazin-1-yl)propoxy)-3,4-dihydroisoquinolin-1(2H)-one] has a Ki (5-HT7 receptor) of 9.9 nM, an ED50 ([1]; mice) of 0.22 mg/kg and an ED50 [2, 6] of 1.02 mg/kg. It also gave a Therapeutic index ([2]; rat) of 143, an ED50 [3] of 0.18 mg/kg and a Ki (D2) of 11.9 nM. The Ki (5-HT2A) was 7.5 nM, the LD50 at 3 days [4] was 146 mg/kg and the ED50 (Catalepsy assay) was 47 mg/kg. The Catalepsy/Apomorphine induced clambering (catalepsy in mice; mice, ratio of ED50 values) was 214, the “Catalepsy/MK-801 induced high activity” value (catalepsy in mice; mice, ratio of ED50 values) was 261 and the Ki (Histamine H1 receptor) was greater than 2000 nM. The Ki (5-HT1A) was 8.8 nM and the LD50 [5] was 190 mg/kg.
For Cn1cnc2ccc(OCCCCN3CCN(c4cccc(C(F)(F)F)c4)CC3)cc2c1=O [Compound 28, 3-methyl-6-(4-(4-(3-(trifluoromethyl)phenyl)piperazin-1-yl)butoxy)quinazolin-4(3H)-one], the Ki (5-HT7 receptor) was 7.4 nM, the Ki (D2) was 24.8 nM and the Ki (5-HT2A) was 5.8 nM. It also gave a Ki (Histamine H1 receptor) greater than 2000 nM and a Ki (5-HT1A) of 12.2 nM.
For Cc1nc2n(c(=O)c1CCN1CCC(c3noc4cc(F)ccc34)CC1)CCCC2 [risperidone, reference compound], the LD50 at 3 days [4] was 113 mg/kg.
O=C1NCCc2ccc(OCCCN3CCN(c4cccc(Cl)c4Cl)CC3)cc21 [A, reference compound] gave a Ki (5-HT7 receptor) of 254 nM, a Ki (D2) of 21.2 nM and a Ki (5-HT2A) of 29.2 nM. It also gave a Ki (Histamine H1 receptor) of 89.6 nM and a Ki (5-HT1A) of 14.3 nM.
